From US20240190922A1, “PEPTIDE PLATINUM COMPLEXES AND METHODS OF USE THEREOF” (priority 2020, published 2024)
Ends that are not written are not given here.

System: A375 cells (human skin melanoma derived cell line)
Assay: A375 cell killing assay (CellTiter-Glo luminescence)
Type: cell-based
Conditions: for potency relative to Onco-001 (times more potent): from EC50 values
Method: Alternatively, A375 cells (human skin melanoma derived cell line) are harvested by centrifugation and then re-suspended in a culture medium. The cell density is adjusted, and cell suspension transferred to the assay multi-well plate. The marginal wells are filled with PBS. The assay plate is incubated in a cell incubator for about 16˜18 hours. Working solutions of test compounds and positive control at various concentrations are added to corresponding wells of the plate. The assay plate is then incubated for an additional 72 hours in a 37° C./5% CO2 incubator. After incubation, the working solution of CellTiter-Glo® reagent is added to the corresponding wells and shaken on an orbital shaker. The assay plate is incubated at room temperature for a short while to stabilize the luminescent signal. Luminescence signals are measured by a luminescence plate reader, such as PheraStar (BMG). Data are stored on a local computer or computer server for analysis.

Substance | potency relative to Onco-001 (times more potent) | EC50 (72 hours incubation, CellTiter-Glo) [µM]
Onco -005 (Ac-GPSRVGG; not fully specified (C-terminus); also: gamma-carboxyglutamic acid, no place given) | approximately 15 × | 
Onco-003: formula (I): R1 and R2 form trans-R,R-1,2-diaminocyclohexane, R3 and R4 joined by bidentate peptide AcGPSRVGGCD | approximately 15 × | 
cis-bis[AcGPSRVGGCNH2][trans-(1R,2R)-1,2-diaminocyclohexane]platinum(II) [Onco-001] |  | ~130
